The series is described as follows: xn = mol fraction of the nth substance listed. The conditions noted are these: Liquid, phase equilibration, x1 = 0.05.

Drawing on the NIST ThermoML archive (doi:10.1021/acs.jced.8b00110), this text covers binary diffusion coefficient for three molecules.

On to `FC(F)(F)/C=C/Cl` [(E)-1-chloro-3,3,3-trifluoroprop-1-ene] + CCCCCC[n+]1ccn(C)c1.O=S(=O)([N-]S(=O)(=O)C(F)(F)F)C(F)(F)F, for which the binary diffusion coefficient reads like this: (303.2 K) 2.9e-10 m2/s; (313.1 K) 3.8e-10 m2/s; (323.2 K) 4.1e-10 m2/s; (333.2 K) 5.7e-10 m2/s; (343.2 K) 8.3e-10 m2/s.
As to `FC(F)(F)/C=C/Cl` [(E)-1-chloro-3,3,3-trifluoroprop-1-ene] + CCCCCCn1cc[n+](C)c1.F[B-](F)(F)F, the binary diffusion coefficient reads like this: (303.2 K) 3.3e-10 m2/s; (313.1 K) 4.6e-10 m2/s; (323.2 K) 6.1e-10 m2/s; (333.2 K) 9.6e-10 m2/s; (343.2 K) 1.68e-09 m2/s.
As to `FC(F)(F)/C=C/Cl` [(E)-1-chloro-3,3,3-trifluoroprop-1-ene] + CCCCCCn1cc[n+](C)c1.O=S(=O)([O-])C(F)(F)F, the binary diffusion coefficient (303.2 K) amounted to 5.2e-10 m2/s; the binary diffusion coefficient (313.1 K) was 7.8e-10 m2/s; the binary diffusion coefficient (323.2 K) stood at 1.04e-09 m2/s; the binary diffusion coefficient (333.2 K) was found to be 1.69e-09 m2/s; the binary diffusion coefficient (343.2 K) amounted to 2.62e-09 m2/s.
